Source: PubChem BioAssay AID256 (DTP/NCI, 2004)
“And” between values parts separate entries of the source, which are not always exact repeats. Identical values can stand only once. Inconclusive results and toxic doses are left out. How the source made its calls: active means survival T/C of 150% or more; inactive means T/C below 125% in these data.

Tested on: CD2F1 mice, L1210 leukemia ip, survival T/C
Test: NCI In Vivo Anticancer Drug Screen. Data for tumor model L1210 Leukemia (intraperitoneal) in CD2F1 (CDF1) mice
Details: higher = longer survival
In short: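 Compound-dosed mice with transplantable tumor versus matched vehicle controls; endpoint ratio T/C reported.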

[1] = endpoint: mean survival time, dose: 100.0 mg/kg/injection, schedule: Q01DX001 (ip), vehicle: saline
[2] = endpoint: mean survival time, dose: 200.0 mg/kg/injection, schedule: Q01DX001 (ip), vehicle: saline
[3] = endpoint: mean survival time, dose: 400.0 mg/kg/injection, schedule: Q01DX001 (ip), vehicle: saline
[4] = endpoint: mean survival time, dose: 6.25 mg/kg/injection, schedule: Q01DX009 (ip), vehicle: saline with Tween-80
[5] = endpoint: mean survival time, dose: 6.25 mg/kg/injection, schedule: Q04DX003 (ip), vehicle: saline with Tween-80
[6] = endpoint: mean survival time, dose: 12.5 mg/kg/injection, schedule: Q01DX009 (ip), vehicle: saline with Tween-80
[7] = endpoint: mean survival time, dose: 12.5 mg/kg/injection, schedule: Q04DX003 (ip), vehicle: saline with Tween-80
[8] = endpoint: mean survival time, dose: 25.0 mg/kg/injection, schedule: Q04DX003 (ip), vehicle: saline with Tween-80
[9] = endpoint: mean survival time, dose: 50.0 mg/kg/injection, schedule: Q01DX009 (ip), vehicle: saline with Tween-80
[10] = endpoint: mean survival time, dose: 100.0 mg/kg/injection, schedule: Q01DX009 (ip), vehicle: saline with Tween-80
[11] = endpoint: mean survival time, dose: 100.0 mg/kg/injection, schedule: Q04DX003 (ip), vehicle: saline with Tween-80
[12] = endpoint: mean survival time, dose: 100.0 mg/kg/injection, schedule: Q04DX002 (ip), vehicle: saline with Tween-80
[13] = endpoint: mean survival time, dose: 200.0 mg/kg/injection, schedule: Q01DX009 (ip), vehicle: saline with Tween-80
[14] = endpoint: mean survival time, dose: 200.0 mg/kg/injection, schedule: Q04DX003 (ip), vehicle: saline with Tween-80
[15] = endpoint: mean survival time, dose: 400.0 mg/kg/injection, schedule: Q01DX009 (ip), vehicle: saline with Tween-80
[16] = endpoint: mean survival time, dose: 400.0 mg/kg/injection, schedule: Q04DX003 (ip), vehicle: saline with Tween-80
[17] = endpoint: mean survival time, dose: 200.0 mg/kg/injection, schedule: Q04DX002 (ip), vehicle: saline with Tween-80
[18] = endpoint: mean survival time, dose: 400.0 mg/kg/injection, schedule: Q04DX002 (ip), vehicle: saline with Tween-80

Measured: T/C

CC(NC(=O)c1cccnc1)C(=O)O (centres undefined)
inactive: endpoint: median survival time, dose: 25.0 mg/kg/injection, schedule: Q04DX003 (ip), vehicle: saline 105 % of control | endpoint: median survival time, dose: 50.0 mg/kg/injection, schedule: Q04DX003 (ip), vehicle: saline 115 % of control | endpoint: median survival time, dose: 100.0 mg/kg/injection, schedule: Q04DX003 (ip), vehicle: saline 94 % of control | endpoint: median survival time, dose: 200.0 mg/kg/injection, schedule: Q04DX003 (ip), vehicle: saline 94 % of control

O=C(SCCNCCNC1CC2CCC1C2)c1ccccc1 (centres undefined)
inactive: endpoint: mean survival time, dose: 9.4 mg/kg/injection, schedule: Q01DX009 (ip), vehicle: saline with Tween-80 98 % of control | endpoint: mean survival time, dose: 9.4 mg/kg/injection, schedule: Q04DX003 (ip), vehicle: saline with Tween-80 95 % of control | endpoint: mean survival time, dose: 18.8 mg/kg/injection, schedule: Q01DX001 (ip), vehicle: saline 97 % of control | endpoint: mean survival time, dose: 18.8 mg/kg/injection, schedule: Q01DX009 (ip), vehicle: saline with Tween-80 97 % of control | endpoint: mean survival time, dose: 18.8 mg/kg/injection, schedule: Q04DX003 (ip), vehicle: saline with Tween-80 92 % of control | endpoint: mean survival time, dose: 37.5 mg/kg/injection, schedule: Q01DX001 (ip), vehicle: saline 100 % of control | endpoint: mean survival time, dose: 37.5 mg/kg/injection, schedule: Q01DX009 (ip), vehicle: saline with Tween-80 97 % of control | endpoint: mean survival time, dose: 37.5 mg/kg/injection, schedule: Q04DX003 (ip), vehicle: saline with Tween-80 95 % of control

NC(N)=NCCCC(NC(c1ccccc1)(c1ccccc1)c1ccccc1)C(=O)O (centres undefined)
inactive: [1] 88 % of control | [2] 92 % of control | [3] 98 % of control

CC(C)OC(=O)Nc1cc(F)ccc1F
inactive: endpoint: mean survival time, dose: 100.0 mg/kg/injection, schedule: Q01DX009 (ip), vehicle: other 97 % of control | endpoint: mean survival time, dose: 200.0 mg/kg/injection, schedule: Q01DX009 (ip), vehicle: other 94 % of control

COC(=O)C=P(c1ccccc1)(c1ccccc1)c1ccccc1
inactive: [4] 97 % of control | [5] 98 % of control | [6] 103 % of control | [7] 101 % of control | endpoint: mean survival time, dose: 25.0 mg/kg/injection, schedule: Q01DX009 (ip), vehicle: saline with Tween-80 97 % of control and 94 % of control | [8] 95 % of control | [9] 95 % of control | [10] 100 % of control | [11] 97 % of control

CCCCCCCCC(=O)c1c(OC)oc(/C=N/Nc2ccccc2)cc1=O
inactive: endpoint: mean survival time, dose: 4.7 mg/kg/injection, schedule: Q01DX009 (ip), vehicle: Klucel (hydroxypropylcellulose) (HPC) 103 % of control | endpoint: mean survival time, dose: 9.38 mg/kg/injection, schedule: Q01DX009 (ip), vehicle: Klucel (hydroxypropylcellulose) (HPC) 103 % of control | endpoint: mean survival time, dose: 18.75 mg/kg/injection, schedule: Q01DX009 (ip), vehicle: Klucel (hydroxypropylcellulose) (HPC) 103 % of control | endpoint: mean survival time, dose: 37.5 mg/kg/injection, schedule: Q01DX009 (ip), vehicle: Klucel (hydroxypropylcellulose) (HPC) 98 % of control | endpoint: mean survival time, dose: 75.0 mg/kg/injection, schedule: Q01DX009 (ip), vehicle: Klucel (hydroxypropylcellulose) (HPC) 92 % of control

Cc1ccc(Sc2ncnc3c2ncn3C2OC(CO)C(O)C2O)cc1 (centres undefined)
inactive: endpoint: mean survival time, dose: 12.5 mg/kg/injection, schedule: Q01DX005 (ip), vehicle: distilled water + Tween-80 96 % of control | endpoint: mean survival time, dose: 25.0 mg/kg/injection, schedule: Q01DX005 (ip), vehicle: distilled water + Tween-80 90 % of control | endpoint: mean survival time, dose: 50.0 mg/kg/injection, schedule: Q01DX005 (ip), vehicle: distilled water + Tween-80 94 % of control | endpoint: mean survival time, dose: 100.0 mg/kg/injection, schedule: Q01DX005 (ip), vehicle: distilled water + Tween-80 90 % of control | endpoint: mean survival time, dose: 200.0 mg/kg/injection, schedule: Q01DX005 (ip), vehicle: distilled water + Tween-80 94 % of control

CCC(CNCCCC(=O)O)(C(=O)O)C(=O)O
inactive: endpoint: mean survival time, dose: 25.0 mg/kg/injection, schedule: Q04DX002 (ip), vehicle: saline with Tween-80 98 % of control | endpoint: mean survival time, dose: 50.0 mg/kg/injection, schedule: Q04DX002 (ip), vehicle: saline with Tween-80 94 % of control | [12] 102 % of control

COC(=O)c1cc2ccccc2o1
inactive: [10] 100 % of control | [11] 108 % of control | [13] 100 % of control | [14] 108 % of control | [15] 105 % of control | [16] 94 % of control

O=C(O)c1cc(-c2ccc(F)cc2)nc2ccc(F)cc12
inactive: [11] 101 % of control | [14] 97 % of control

CCCCCCCCCCCCNC(=O)C[n+]1cccc(C(=O)Nc2ccccc2)c1
inactive: [4] 97 % of control | [5] 106 % of control | [6] 97 % of control | [7] 100 % of control | [8] 106 % of control

CCCC(C)CC1CCC(N)CC1 (centres undefined)
inactive: endpoint: mean survival time, dose: 100.0 mg/kg/injection, schedule: Q04DX002 (ip), vehicle: saline 96 % of control | endpoint: mean survival time, dose: 200.0 mg/kg/injection, schedule: Q04DX002 (ip), vehicle: saline 96 % of control

C1=CC2C3C=CC(C3)C2C1 (centres undefined)
inactive: [9] 94 % of control | [10] 93 % of control | [13] 98 % of control

COc1cc2ccnc(Nc3ccccc3)c2cc1OC
inactive: [12] 95 % of control | [17] 95 % of control | [18] 87 % of control

Cc1ccc(/C(O)=C2/CC(C)(C)c3ccccc3C2=O)cc1
inactive: endpoint: mean survival time, dose: 100.0 mg/kg/injection, schedule: Q04DX003 (ip), vehicle: acetone 92 % of control | endpoint: mean survival time, dose: 200.0 mg/kg/injection, schedule: Q04DX003 (ip), vehicle: acetone 92 % of control | endpoint: mean survival time, dose: 400.0 mg/kg/injection, schedule: Q04DX003 (ip), vehicle: acetone 88 % of control

Brc1ccc2c(c1)C(Br)c1ccccc1-2 (centres undefined)
inactive: [9] 105 % of control | [10] 103 % of control | [11] 101 % of control | [13] 100 % of control | [14] 101 % of control

CCOP(=S)(OCC)C(C)(C)C
inactive: [12] 107 % of control | [17] 103 % of control | [18] 95 % of control

CCCN(CCC)S(=O)(=O)c1ccc(NC(=O)Oc2cc(C)ccc2C(C)C)cc1
inactive: [1] 100 % of control | [2] 95 % of control | [3] 94 % of control

OC(c1ccccc1)(c1ccccc1)c1ccccc1Cl
inactive: [10] 98 % of control | [13] 101 % of control | [15] 102 % of control

Oc1ccccc1CNc1ccccc1
inactive: [11] 98 % of control | [14] 93 % of control | [16] 104 % of control

CC1=NN(c2ccccc2)C(=O)C1N=Nc1ccc([As](=O)(O)O)c(O)c1 (centres undefined)
inactive: [10] 103 % of control | [11] 106 % of control | [13] 97 % of control | [14] 100 % of control | [16] 101 % of control

CC(C)(C)N1CCOCC1
inactive: [11] 100 % of control

CCC(C)(CC(=O)OC)C(=O)OC (centres undefined)
inactive: [1] 108 % of control | [2] 104 % of control | [3] 108 % of control
